From US11820766B2, “Monoacylglycerol lipase modulators” (Janssen Pharmaceutica NV, priority 2018, dated 2023)

Target: T1, human MGL from HeLa cells (Homo sapiens, UniProt Q99685)
T1 construct: combining endogenously expressed MGL from HeLa cells with test compounds; endogenous in cells; host or cells: HeLa cells / cell homogenates
T1 sequence (Q99685 1-303): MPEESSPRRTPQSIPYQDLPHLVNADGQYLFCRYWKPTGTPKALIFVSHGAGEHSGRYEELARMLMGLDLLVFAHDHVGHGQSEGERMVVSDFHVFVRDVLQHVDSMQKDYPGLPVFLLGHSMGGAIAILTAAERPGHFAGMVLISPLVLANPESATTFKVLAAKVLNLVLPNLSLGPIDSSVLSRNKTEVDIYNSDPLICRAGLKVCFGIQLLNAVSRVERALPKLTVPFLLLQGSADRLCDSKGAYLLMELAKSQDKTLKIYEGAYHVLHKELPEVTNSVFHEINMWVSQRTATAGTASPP
Assay: In vitro MGL activity assay: [glycerol-1,3-3H]-oleyl glycerol cleavage by MGL from HeLa cells
Format: biochemical
Conditions: 300 nM [Glycerol-1,3-3H]-oleyl glycerol, one hour
Source text: MGL is the predominant hydrolase in HeLa cells/cell homogenates.

Row | IC50 [nM] | SMILES
1 | 52.2 | C[C@H]1c2nn(C)c(-c3ccc(F)c(F)c3F)c2CCN1C(=O)c1ccc2ncccc2c1 [Example 515, [(7S)-2,7-Dimethyl-3-(2,3,4-trifluorophenyl)-5,7-dihydro-4H-pyrazolo[3,4-c]pyridin-6-yl]-(6-quinolyl)methanone]
2 | 141 | C[C@H]1c2nn(C)c(-c3cc(F)c(F)c(F)c3)c2CCN1C(=O)c1ccc2c(ccc[n+]2[O-])c1 [Example 516, [(7S)-2,7-Dimethyl-3-(3,4,5-trifluorophenyl)-5,7-dihydro-4H-pyrazolo[3,4-c]pyridin-6-yl]-(1-oxidoquinolin-1-ium-6-yl)methanone]
3 | 80.7 | C[C@H]1c2nn(C)c(-c3cc(F)c(F)c(F)c3)c2CCN1C(=O)c1ccc2nc(O)ccc2c1 [Example 517, [(7S)-2,7-Dimethyl-3-(3,4,5-trifluorophenyl)-5,7-dihydro-4H-pyrazolo[3,4-c]pyridin-6-yl]-(2-hydroxy-6-quinolyl)methanone]
4 | 1450 | Cc1ccc(-c2c3c(nn2C)[C@H](C)N(C(=O)c2ccc4ncccc4c2)CC3)cn1 [Example 519, [(7S)-2,7-Dimethyl-3-(6-methyl-3-pyridyl)-5,7-dihydro-4H-pyrazolo[3,4-c]pyridin-6-yl]-(6-quinolyl)methanone]
5 | 1110 | Cc1cc(-c2c3c(nn2C)[C@H](C)N(C(=O)c2ccc4ncccc4c2)CC3)ccn1 [Example 520, [(7S)-2,7-Dimethyl-3-(2-methyl-4-pyridyl)-5,7-dihydro-4H-pyrazolo[3,4-c]pyridin-6-yl]-(6-quinolyl)methanone]
6 | 766 | C[C@H]1c2nn(C)c(-c3ccc(C(F)F)nc3)c2CCN1C(=O)c1ccc2ncccc2c1 [Example 521, [(7S)-3-[6-(Difluoromethyl)-3-pyridyl]-2,7-dimethyl-5,7-dihydro-4H-pyrazolo[3,4-c]pyridin-6-yl]-(6-quinolyl)methanone]
7 | 267 | C[C@H]1c2nn(C)c(-c3ccc(C(F)(F)F)nc3)c2CCN1C(=O)c1ccc2ncccc2c1 [Example 522, [(7S)-2,7-Dimethyl-3-[6-(trifluoromethyl)-3-pyridyl]-5,7-dihydro-4H-pyrazolo[3,4-c]pyridin-6-yl]-(6-quinolyl)methanone]
8 | 417 | C[C@H]1c2nn(C)c(-c3ccnc(C(F)(F)F)c3)c2CCN1C(=O)c1ccc2ncccc2c1 [Example 523, [(7S)-2,7-Dimethyl-3-[2-(trifluoromethyl)-4-pyridyl]-5,7-dihydro-4H-pyrazolo[3,4-c]pyridin-6-yl]-(6-quinolyl)methanone]
9 | 7.23 | C[C@H]1c2nn(C)c(-c3csc(C(F)(F)F)c3)c2CCN1C(=O)c1ccc2ncccc2c1 [Example 524, [(7S)-2,7-Dimethyl-3-[5-(trifluoromethyl)-3-thienyl]-5,7-dihydro-4H-pyrazolo[3,4-c]pyridin-6-yl]-(6-quinolyl)methanone]
10 | 602 | COc1ccc(-c2c3c(nn2C)[C@H](C)N(C(=O)c2ccc4ncccc4c2)CC3)cn1 [Example 525, [(7S)-3-(6-Methoxy-3-pyridyl)-2,7-dimethyl-5,7-dihydro-4H-pyrazolo[3,4-c]pyridin-6-yl]-(6-quinolyl)methanone]
11 | 502 | COc1cc(-c2c3c(nn2C)[C@H](C)N(C(=O)c2ccc4ncccc4c2)CC3)ccn1 [Example 526, [(7S)-3-(2-Methoxy-4-pyridyl)-2,7-dimethyl-5,7-dihydro-4H-pyrazolo[3,4-c]pyridin-6-yl]-(6-quinolyl)methanone]
12 | 278 | C[C@H]1c2nn(C)c(-c3ccc(OC(F)F)nc3)c2CCN1C(=O)c1ccc2ncccc2c1 [Example 527, [(7S)-3-[6-(Difluoromethoxy)-3-pyridyl]-2,7-dimethyl-5,7-dihydro-4H-pyrazolo[3,4-c]pyridin-6-yl]-(6-quinolyl)methanone]
13 | 397 | C[C@H]1c2nn(C)c(-c3cncc(OC(F)F)c3)c2CCN1C(=O)c1ccc2ncccc2c1 [Example 528, [(7S)-3-[5-(Difluoromethoxy)-3-pyridyl]-2,7-dimethyl-5,7-dihydro-4H-pyrazolo[3,4-c]pyridin-6-yl]-(6-quinolyl)methanone]
14 | 320 | COc1ncc(-c2c3c(nn2C)[C@H](C)N(C(=O)c2ccc4ncccc4c2)CC3)cc1C [Example 529, [(7S)-3-(6-Methoxy-5-methyl-3-pyridyl)-2,7-dimethyl-5,7-dihydro-4H-pyrazolo[3,4-c]pyridin-6-yl]-(6-quinolyl)methanone]
15 | 130 | COc1ncc(-c2c3c(nn2C)[C@H](C)N(C(=O)c2ccc4ncccc4c2)CC3)cc1C(F)(F)F [Example 530, [(7S)-3-[6-Methoxy-5-(trifluoromethyl)-3-pyridyl]-2,7-dimethyl-5,7-dihydro-4H-pyrazolo[3,4-c]pyridin-6-yl]-(6-quinolyl)methanone]
16 | 22.9 | C[C@H]1c2nn(C)c(-c3cccc4cc[nH]c34)c2CCN1C(=O)c1ccc2ncccc2c1 [Example 531, [(7S)-3-(1H-Indol-7-yl)-2,7-dimethyl-5,7-dihydro-4H-pyrazolo[3,4-c]pyridin-6-yl]-(6-quinolyl)methanone]
17 | 65 | C[C@H]1c2nn(C)c(-c3ccc4ccoc4c3)c2CCN1C(=O)c1ccc2ncccc2c1 [Example 532, [(7S)-3-(Benzofuran-6-yl)-2,7-dimethyl-5,7-dihydro-4H-pyrazolo[3,4-c]pyridin-6-yl]-(6-quinolyl)methanone]
18 | 17.4 | C[C@H]1c2nn(C)c(-c3ccc4occc4c3)c2CCN1C(=O)c1ccc2ncccc2c1 [Example 533, [(7S)-3-(Benzofuran-5-yl)-2,7-dimethyl-5,7-dihydro-4H-pyrazolo[3,4-c]pyridin-6-yl]-(6-quinolyl)methanone]
19 | 25.1 | C[C@H]1c2nn(C)c(-c3cccc4ccoc34)c2CCN1C(=O)c1ccc2ncccc2c1 [Example 534, [(7S)-3-(Benzofuran-7-yl)-2,7-dimethyl-5,7-dihydro-4H-pyrazolo[3,4-c]pyridin-6-yl]-(6-quinolyl)methanone]
20 | 18.1 | C[C@H]1c2nn(C)c(-c3cccc4occc34)c2CCN1C(=O)c1ccc2ncccc2c1 [Example 535, [(7S)-3-(Benzofuran-4-yl)-2,7-dimethyl-5,7-dihydro-4H-pyrazolo[3,4-c]pyridin-6-yl]-(6-quinolyl)methanone]
21 | 20 | C[C@H]1c2nn(C)c(-c3cc(F)cc4ccoc34)c2CCN1C(=O)c1ccc2ncccc2c1 [Example 536, [(7S)-3-(5-Fluorobenzofuran-7-yl)-2,7-dimethyl-5,7-dihydro-4H-pyrazolo[3,4-c]pyridin-6-yl]-(6-quinolyl)methanone]
22 | 33 | C[C@H]1c2nn(C)c(-c3cccc4scnc34)c2CCN1C(=O)c1ccc2ncccc2c1 [Example 537, [(7S)-3-(1,3-Benzothiazol-4-yl)-2,7-dimethyl-5,7-dihydro-4H-pyrazolo[3,4-c]pyridin-6-yl]-(6-quinolyl)methanone]
23 | 72.6 | C[C@H]1c2nn(C)c(-c3cccc4nonc34)c2CCN1C(=O)c1ccc2ncccc2c1 [Example 538, [(7S)-3-(2,1,3-Benzoxadiazol-4-yl)-2,7-dimethyl-5,7-dihydro-4H-pyrazolo[3,4-c]pyridin-6-yl]-(6-quinolyl)methanone]
24 | 55.2 | C[C@H]1c2nn(C)c(-c3cccc4c3OCC4)c2CCN1C(=O)c1ccc2ncccc2c1 [Example 539, [(7S)-3-(2,3-Dihydrobenzofuran-7-yl)-2,7-dimethyl-5,7-dihydro-4H-pyrazolo[3,4-c]pyridin-6-yl]-(6-quinolyl)methanone]
